Results published in patent US11325916B1, “Spiropyrrolidine derived antiviral agents” (priority 2021, dated 2022).
Like-named read-outs stand apart in the source and are kept apart here.

Tests used:
SARS-CoV-2 3CL-protease = SARS-CoV-2 3CL-protease (Severe acute respiratory syndrome coronavirus 2 (2019-nCoV) (SARS-CoV-2), UniProt P0DTD1); experiment: SARS-CoV-2 3C-Like (3CL) Protease Fluorescence Assay (FRET); assay type: biochemical
[1] = test system: 229E human corona virus (hCoV); experiment: 229E Live Virus Assay (MRC-5 cells, CPE, ATPlite readout); assay type: cell-based, hCoV-229E; conditions: Human coronavirus 229E, MRC5, 144 h, read-out: 229E EC50
[2] = MRC-5 cells, hCoV-229E MOI 0.05, 6 days at 34° C., ATPlite, duplicate, ranges defined in μM

`CN(C(=O)[C@H](Cc1ccc(F)cc1)NS(=O)(=O)C1CC1)[C@@H](CC(C)(C)C)C(=O)N1C[C@]2(C[C@H]1C#N)C(=O)Nc1ccccc12` [Example 66] gave an IC50 (SARS-CoV-2 3CL-protease) of under 100 nM and an EC50 [1] of under 0.1 µM.
With `CC(C)(C)C[C@H](NC(=O)[C@H](Cc1ccc(F)cc1)NC(=O)c1cnccn1)C(=O)N1C[C@]2(C[C@H]1C#N)C(=O)Nc1ccccc12` [Example 104] the IC50 (SARS-CoV-2 3CL-protease) was under 100 nM.
Molecule `CC(C)C[C@H](NC(=O)[C@@H](NC(=O)OCc1ccccc1)C(C)(C)C)C(=O)N1C[C@]2(C[C@H]1C#N)C(=O)Nc1ccccc12` [Example 36] has an IC50 (SARS-CoV-2 3CL-protease) of under 100 nM and an EC50 [1] of 0.1 to 1 µM.
With `CC(=O)N[C@@H](C(=O)N[C@@H](CC(C)(C)C)C(=O)N1C[C@]2(C[C@H]1C#N)C(=O)Nc1ccccc12)C(C)C` [Example 89] the IC50 (SARS-CoV-2 3CL-protease) was 100 to 1000 nM and the EC50 [1] was 0.1 to 1 µM.
`CC(C)C[C@@H](C(=O)N1C[C@]2(C[C@H]1C#N)C(=O)Nc1ccccc12)N(C)C(=O)[C@H](Cc1ccc(F)cc1)NC(=O)c1ccn(C)n1` [Example 19] gave an IC50 (SARS-CoV-2 3CL-protease) of under 100 nM and an EC50 [1] of under 0.1 µM.
With `CC(C)(C)C(NC(=O)NCc1ccccc1)C(=O)N1CCC[C@H]1C(=O)N1C[C@]2(C[C@H]1C#N)C(=O)Nc1ccccc12` (some centres unmarked) [Example 60] the IC50 (SARS-CoV-2 3CL-protease) was over 1000 nM and the EC50 [1] was over 1 µM.
With `CN(C(=O)[C@@H](N)C(C)(C)C)[C@@H](Cc1ccccc1)C(=O)N1C[C@]2(C[C@H]1C#N)C(=O)Nc1ccccc12` [Example 29] the IC50 (SARS-CoV-2 3CL-protease) was under 100 nM and the EC50 [1] was 0.1 to 1 µM.
For `CN(C)[C@@H](CC1CC1)C(=O)N[C@@H](CC(C)(C)C)C(=O)N1C[C@]2(C[C@H]1C#N)C(=O)Nc1ccccc12` [Example 106], the IC50 (SARS-CoV-2 3CL-protease) was over 1000 nM.
`CC(C)[C@H](NC(=O)c1cc(F)c(F)c(F)c1)C(=O)N(C)[C@@H](CC(C)(C)C)C(=O)N1C[C@]2(C[C@H]1C#N)C(=O)Nc1ccccc12` [Example 108] was tested, and the IC50 (SARS-CoV-2 3CL-protease) was under 100 nM and the EC50 [1] was 0.1 to 1 µM.
`CC(C)C[C@@H](C(=O)N1C[C@]2(C[C@H]1C#N)C(=O)Nc1ccccc12)N(C)C(=O)C1(NC(=O)OCc2ccccc2)CCCC1` [Example 115] was tested, and the IC50 (SARS-CoV-2 3CL-protease) was under 100 nM and the EC50 [1] was 0.1 to 1 µM.
`CC(C)C[C@@H](C(=O)N1C[C@]2(C[C@H]1C#N)C(=O)Nc1ccccc12)N(C)C(=O)C(NC(=O)c1ccc(F)c(F)c1)c1ccccc1` (some centres unmarked) [Example 118] gave an IC50 (SARS-CoV-2 3CL-protease) of under 100 nM.
Molecule `CN(C(=O)[C@H](Cc1ccc(F)cc1)N1CCCNC1=O)[C@@H](CC(C)(C)C)C(=O)N1C[C@]2(C[C@H]1C#N)C(=O)Nc1ccccc12` [Example 69] has an IC50 (SARS-CoV-2 3CL-protease) of under 100 nM and an EC50 [1] of 0.1 to 1 µM.
`CC(C)C(=O)N[C@@H](C)C(=O)N(C)[C@@H](CC(C)(C)C)C(=O)N1C[C@]2(C[C@H]1C#N)C(=O)Nc1ccccc12` [Example 130] gave an IC50 (SARS-CoV-2 3CL-protease) of under 100 nM.
Molecule `CN(C(=O)[C@H](CC1CC1)NC(=O)c1ccc(OC2CC2)c(OC2CC2)c1)[C@@H](CC(C)(C)C)C(=O)N1C[C@]2(C[C@H]1C#N)C(=O)Nc1ccccc12` [Example 131] has an IC50 (SARS-CoV-2 3CL-protease) of under 100 nM.
`CN(C(=O)[C@H](Cc1ccc(F)cc1)NC(=O)N1CCOCC1)[C@@H](CC(C)(C)C)C(=O)N1C[C@]2(C[C@H]1C#N)C(=O)Nc1ccccc12` [Example 68] gave an IC50 (SARS-CoV-2 3CL-protease) of under 100 nM and an EC50 [1] of under 0.1 µM.
In the case of `CC(C)OC(=O)NC(C(=O)N1CCC[C@H]1C(=O)N1C[C@]2(C[C@H]1C#N)C(=O)Nc1ccccc12)C(C)(C)C` (some centres unmarked) [Example 59], the IC50 (SARS-CoV-2 3CL-protease) is reported as over 1000 nM and the EC50 [1] is reported as over 1 µM.
With `CN(C(=O)[C@H](Cc1ccc(F)cc1)NC(=O)c1cc2c(F)cc(F)c(F)c2[nH]1)[C@@H](CC(C)(C)C)C(=O)N1C[C@]2(C[C@H]1C#N)C(=O)Nc1ccccc12` [Example 7] the IC50 (SARS-CoV-2 3CL-protease) was under 100 nM and the EC50 [1] was under 0.1 µM.
In the case of `CC(=O)N[C@@H](Cc1cc(F)c(F)cc1F)C(=O)N(C)[C@@H](CC(C)(C)C)C(=O)N1C[C@]2(C[C@H]1C#N)C(=O)Nc1ccccc12` [Example 113], the IC50 (SARS-CoV-2 3CL-protease) is reported as under 100 nM and the EC50 [1] is reported as under 0.1 µM.
In the case of `CC(C)C[C@@H](C(=O)N1C[C@]2(C[C@H]1C#N)C(=O)Nc1ccccc12)N1CC[C@H](NC(=O)OC(C)(C)C)C1=O` [Example 10], the IC50 (SARS-CoV-2 3CL-protease) is reported as 100 to 1000 nM and the EC50 [1, 2] is reported as 0.1 to 1 µM.
Molecule `Cc1cc(C(=O)N[C@@H](Cc2ccc(F)cc2)C(=O)N(C)[C@@H](CC(C)C)C(=O)N2C[C@]3(C[C@H]2C#N)C(=O)Nc2ccccc23)no1` [Example 4] has an IC50 (SARS-CoV-2 3CL-protease) of under 100 nM and an EC50 [1, 2] of under 0.1 µM.
Work on `CN(C(=O)[C@H](CC1CC1)N1CCOC1=O)[C@@H](CC(C)(C)C)C(=O)N1C[C@]2(C[C@H]1C#N)C(=O)Nc1ccccc12` [Example 72] yielded an IC50 (SARS-CoV-2 3CL-protease) of under 100 nM and an EC50 [1] of under 0.1 µM.
`COC(=O)N[C@H](C(=O)N(C)[C@@H](CC(C)C)C(=O)N1C[C@]2(C[C@H]1C#N)C(=O)Nc1ccccc12)C1CCCCC1` [Example 23] gave an IC50 (SARS-CoV-2 3CL-protease) of under 100 nM and an EC50 [1] of 0.1 to 1 µM.
For `CC(=O)N[C@H](Cc1cc(F)c(F)cc1F)C(=O)N(C)[C@@H](CC(C)(C)C)C(=O)N1C[C@]2(C[C@H]1C#N)C(=O)Nc1ccccc12` [Example 114], the IC50 (SARS-CoV-2 3CL-protease) was under 100 nM and the EC50 [1] was under 0.1 µM.
`CC(C)C[C@@H](C(=O)N1C[C@]2(C[C@H]1C#N)C(=O)Nc1ccccc12)N(C)C(=O)[C@H](CC(C)(C)C)NC(=O)C(F)(F)F` [Example 26] was tested, and the IC50 (SARS-CoV-2 3CL-protease) was under 100 nM and the EC50 [1] was under 0.1 µM.
For `CC(=O)N[C@@H](CC1CC1)C(=O)N[C@@H](CC(C)(C)C)C(=O)N1C[C@]2(C[C@H]1C#N)C(=O)Nc1ccccc12` [Example 95], the IC50 (SARS-CoV-2 3CL-protease) was under 100 nM.
